Data as given in paper PMC3047591 (Inorganic chemistry, 2011).

Tests used:
[1] = target: T1, His93Gly sperm whale myoglobin (H93G Mb) (Physeter macrocephalus, UniProt P02185, H94G); experiment: electronic absorption and MCD spectroscopy of mixed CHA/Im adduct; type: binding
[2] = target: T1, His93Gly sperm whale myoglobin (H93G Mb); experiment: electronic absorption and MCD spectroscopy, titration; type: binding

T1 sequence (P02185 2-154 H94G): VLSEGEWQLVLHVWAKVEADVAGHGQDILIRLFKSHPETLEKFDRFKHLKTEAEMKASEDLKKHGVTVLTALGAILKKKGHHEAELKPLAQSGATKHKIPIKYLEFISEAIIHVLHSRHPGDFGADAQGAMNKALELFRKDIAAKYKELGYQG

Compound | electronic absorption and MCD spectroscopy of mixed CHA/Im adduct [1] | electronic absorption and MCD spectroscopy, titration [2]
c1c[nH]cn1 [Im, imidazole] | the final spectrum is that of a nearly homogeneous Im/CHA mixed-ligand adduct | –
NC1CCCCC1 [CHA, cyclohexylamine] | – | ferric CHA-ligated H93G Mb is a six-coordinate high-spin H93G Mb derivative with the CHA amine group as the proximal donor
